The results in this text go back to ChEMBL document CHEMBL1949518, “Synthesis and biological evaluation of some new 2-pyrazolines bearing benzene sulfonamide moiety as potential anti-inflammatory and anti-cancer agents” (Eur J Med Chem, 2011).

The subject of data set [1] is Rattus norvegicus. Kind of data set: Antiinflammatory activity in Wistar rat assessed as inhibition of carrageenan-induced paw edema at 20 mg/kg, po administered 30 mins before carrageenan challenge measured after 5 hrs. In kind it is functional. (In general: The carrageenan paw model is a standard test of acute inflammation.)
Data set [2] relates to Rattus norvegicus. Kind of data set: Antiinflammatory activity in Wistar rat assessed as inhibition of carrageenan-induced paw edema at 20 mg/kg, po administered 30 mins before carrageenan challenge measured after 3 hrs. In kind it is functional.
In data set [3] the test system is Mus musculus. Kind of data set: Toxicity in Swiss albino mouse assessed as mortality at 100 mg/kg, po measured up to 24 hrs. Format: organism-based. Details: dose 100 mg/kg, route oral. The following applies: in vivo.
The subject of data set [4] is Mus musculus. Kind of data set: Toxicity in Swiss albino mouse assessed as behavioral change at 100 mg/kg, po measured up to 24 hrs. In kind it is organism-based. Details: dose 100 mg/kg, route oral. The settings on record: in vivo.
Data set [5] relates to Rattus norvegicus. Kind of data set: Ulcerogenic activity in fasted Wistar albino rat at 60 mg/kg, po administered as 3 dose measured after 6 hrs post last dose. In kind it is toxicity, organism-based. Details: dose 60 mg/kg, route oral. The following applies: in vivo.
Data set [6] has as its target Prostaglandin G/H synthase 1 (Bos taurus, UniProt O62664). Kind of data set: Inhibition of bovine COX1 assessed as PGE2 formation preincubated for 10 mins by ELISA. In general terms: In an ELISA, binding on a coated surface is turned into a signal by an enzyme label.

Molecules are shown by their SMILES.

Chain of Prostaglandin G/H synthase 1 (O62664 whole entry): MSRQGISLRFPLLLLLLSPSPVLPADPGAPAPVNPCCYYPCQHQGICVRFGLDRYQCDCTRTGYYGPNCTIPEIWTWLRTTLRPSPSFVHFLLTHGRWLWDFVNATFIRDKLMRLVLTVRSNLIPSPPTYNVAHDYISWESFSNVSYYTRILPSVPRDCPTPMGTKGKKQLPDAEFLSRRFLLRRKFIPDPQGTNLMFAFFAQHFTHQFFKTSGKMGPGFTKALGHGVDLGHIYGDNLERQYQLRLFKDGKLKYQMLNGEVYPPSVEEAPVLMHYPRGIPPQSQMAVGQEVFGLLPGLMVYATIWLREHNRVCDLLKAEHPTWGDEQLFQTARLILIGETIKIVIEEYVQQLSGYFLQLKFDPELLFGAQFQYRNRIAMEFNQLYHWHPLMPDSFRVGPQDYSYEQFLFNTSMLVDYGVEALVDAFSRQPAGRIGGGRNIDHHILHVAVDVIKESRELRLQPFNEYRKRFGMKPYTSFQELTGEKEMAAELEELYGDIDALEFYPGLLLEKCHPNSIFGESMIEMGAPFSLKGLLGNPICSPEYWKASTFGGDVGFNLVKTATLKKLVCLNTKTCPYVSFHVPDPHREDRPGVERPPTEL

For the compound `Cc1cc(O)c(C2=NN(c3ccc(S(N)(=O)=O)cc3)C(c3ccccc3)C2)c(C)c1Cl` (stereo unspecified), the inhibition in vivo (as a rule, how much of the control response was suppressed) at 20 mg/kg was found to be 36.4% in data set [1] and 20% in data set [2].
Consider `Cc1cc(O)c(C2=NN(c3ccc(S(N)(=O)=O)cc3)C(c3ccccc3Cl)C2)c(C)c1Cl` (stereo unspecified), for which the inhibition in vivo at 20 mg/kg in data set [1] came out at 45.5%; in data set [2], 53%.
As for `Cc1cc(O)c(C2=NN(c3ccc(S(N)(=O)=O)cc3)C(c3ccccc3O)C2)c(C)c1Cl` (stereo unspecified), the Activity result in data set [3], in data set [4] and in data set [5] was “Non-toxic” throughout. In addition, the inhibition in vivo at 20 mg/kg in data set [1] came out at 75%; in data set [2], 79%. Also, the half-maximal inhibitory concentration (IC50) (usually the concentration at which inhibition is half-maximal) in data set [6] turned out to be 65.4 µM.
For `COc1ccc(C2CC(c3c(O)cc(C)c(Cl)c3C)=NN2c2ccc(S(N)(=O)=O)cc2)cc1OC` (stereo unspecified), the inhibition in vivo at 20 mg/kg was 45.5% in data set [1] and 26.7% in data set [2].
The corresponding values for `COc1cc(C2CC(c3c(O)cc(C)c(Cl)c3C)=NN2c2ccc(S(N)(=O)=O)cc2)cc(OC)c1OC` (stereo unspecified) are 75% and 68.4%.
Regarding `Cc1ccc(-c2cc(C(F)(F)F)nn2-c2ccc(S(N)(=O)=O)cc2)cc1` [CELECOXIB], the values for the inhibition in vivo at 20 mg/kg in data set [1] and in data set [2] were 82% and 79.6%, respectively.
